Where two headings read alike, the source gives them in different places.

Here are results for 17 compounds from patent publication US11401271B2, “Fused heterocyclic compound, pyrazole-ring-containing fused heterocyclic compound, agricultural composition containing thereof, and method of using the composition” (SOUTH CHINA AGRICULTURAL UNIVERSITY, priority 2017, dated 2022).

What all share (format): in vivo
Data set [1] relates to Bombyx mori L. Description: Toxicity test on 2nd-instar larvae of Bombyx mori L., leaf immersion feeding method. To be noted: 1000 ppm, 24 hours. As for the experimental part: (1) Toxicity Test on 2nd-Instar Larvae of Bombyx mori L.
Bombyx mori L. is an important economic insect sensitive to pesticides in an agricultural ecosystem, and is also one of the non-target organisms of environmental ecology listed in pesticide registration of China. The 2nd-instar larvae of Bombyx mori L. were used as test objects and tested by using a leaf immersion feeding method.
Operation process: Samples were weighed accurately, and respectively added with 200 μL of dimethyl sulfoxide to prepare 10 g/L mother liquor which was diluted into a concentration of 1000 ppm with an aqueous solution containing 0.05% of Tween-80 during the test. Young cotyledons of mulberries were collected, washed and air-dried, immersed in a liquid medicine, taken out after 5 seconds, naturally air-dryed, and then transferred into a clean vessel. About 35 2nd -instar larvae of Bombyx mori L. were put into the vessel and fed at a constant temperature of 25° C. Each concentration was repeated 3 times, and an aqueous solution containing 0.05% of Tween-80 was used as a control group. After being treated for 24 hours, a number of dead Bombyx mori L. was counted, and a mortality (%) was calculated according to a formula that mortality (%)=(number of live larvae in the control group −number of treated live larvae)/number of live larvae in the control group * 100%.

Data set [2] has as its system Solenopsis invicta. The data set can be described thus: whole plant or invertebrate. The settings on record: Solenopsis invicta, water test tube poison-feeding. The gist of the method:
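Mortality (%) of Solenopsis invicta, computed against live counts in control tubes, was recorded 24 h and 72 h after treatment at 25 °C. Compound was offered by oral feeding in test tubes at 100 ppm, diluted from a 10 g/L DMSO stock into water with 5% honey and 0.05% Tween-80.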

Data set [3] relates to Apis cernan. Description: Toxicity test on adult worker bees of Apis cernan, small beaker method. The settings on record: 500 ppm, 48 hours. Here is the method:
(2) Toxicity Test on Adult Worker Bees of Apis cernan.
Adult worker bees of Apis cernan having the same size were selected for test. The worker bees were collected from beekeeping boxes in the daystart of the test day and tested by using a small beaker method.
Operation process: A small amount of absorbent cotton was put into a 5 mL small beaker, 5 mL of a test liquid medicine (a concentration of 500 ppm) was dropped into the absorbent cotton, and stirred gently to make the absorbent cotton completely wet but not leached obviously, then the small beaker was put into a 500 mL large beaker, then 15 worker bees were put into the large beaker, and finally the large beaker was sealed with gauze. After treatment, the large beaker was placed in a dark room of an artificial climate box. After taking the medicine for 48 hours, a number of live and dead worker bees were investigated.

The subject of data set [4] is Aphis craccivora. Description: whole plant or invertebrate. The settings on record: Aphis craccivora, 24 h, read-out: Aphis craccivora Mortality (%) 500 ppm. The gist of the method:
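Mortality scored 24 h after treatment as the reduction in live aphids versus a 0.05% Tween-80 control; three replicates, 23° C. Treatment was a 5 s immersion of wingless adults on bean sprouts in 500 ppm test solution containing 0.05% Tween-80, followed by air-drying.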

Data set [5] has as its system Plutella xylostella. The data set can be described thus: whole plant or invertebrate. The settings on record: Plutella xylostella, read-out: Plutella xylostella Mortality (%) 500 ppm. The gist of the method: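 Leaf immersion feeding test: 2nd-instar larvae (about 35 per vessel, 3 replicates) kept at 28° C. on 1.0 cm cabbage discs soaked 5 s in a 500 ppm solution with 0.05% Tween-80. Mortality after 24 h of exposure, calculated relative to live larvae in the Tween-80 control.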

Data set [6] has as its system Spodoptera exigua. The data set can be described thus: whole plant or invertebrate. The settings on record: Spodoptera exigua, 24 h, read-out: Spodoptera exigua Mortality (%) 500 ppm. The gist of the method:
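Leaf immersion feeding: second-instar larvae (about 35 per vessel, triplicate) kept at 28° C on discs treated with 500 ppm test solution in 0.05% Tween-80. Mortality at 24 h, calculated relative to surviving larvae in the solvent control.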

The mark [7] stands for this setting: 24 h, read-out: Solenopsis invicta Mortality (%) 100 ppm 24 h, 100 ppm, 24 h.
Setting [8] is: 72 h, read-out: Solenopsis invicta Mortality (%) 100 ppm 72 h, 100 ppm, 72 h.

Take `N#Cc1nn2c(c1[S+]([O-])C(F)(F)F)NC(C(O)CO)c1cc(C(F)(F)F)cc(Cl)c1-2` (centres unmarked) [Compound C51]: in data set [1], the “Toxicity determination Bombyx mori L. Mortality (%)” value turned out to be 9%. The values for the mortality at 100 ppm in data set [2] (setting [7]) and in data set [2] (setting [8]) were 19% and 86%, respectively. For the same compound, the “Toxicity determination Apis cernan Mortality (%)” value in data set [3] amounted to 5%. Further, the mortality at 500 ppm in data set [4] worked out at 79%; in data set [5], 87%; in data set [6], 85%.
On to `C=CC1(CC#N)Nc2c([S+]([O-])C(F)(F)F)c(C#N)nn2-c2c(Cl)cc(C(F)(F)F)cc21` (centres unmarked) [Compound C20], for which the “Toxicity determination Bombyx mori L. Mortality (%)” value in data set [1] is 8%. For the same compound, the mortality at 100 ppm in data set [2] (setting [7]) worked out at 28%; in data set [2] (setting [8]) it was 99%. Further, in data set [3], the “Toxicity determination Apis cernan Mortality (%)” value was 10%. For the same compound, the mortality at 500 ppm in data set [4], in data set [5] and in data set [6] was 100% throughout.
Consider `Nc1ccc2c(c1)-n1nc(C(F)(F)F)cc1NC2(C(F)(F)F)C(F)(F)F` [Compound A10], for which, in data set [1], the “Toxicity determination Bombyx mori L. Mortality (%)” value amounted to 15%. For the same compound, the mortality at 100 ppm in data set [2] (setting [7]) worked out at 20%; in data set [2] (setting [8]), 87%. Besides, the “Toxicity determination Apis cernan Mortality (%)” value in data set [3] was determined as 12%. The mortality at 500 ppm was 100% in data set [4], 86% in data set [5] and 100% in data set [6].
In the case of `CC(=O)c1nn2c(c1Br)NC(C)(C)c1ccccc1-2` [Compound A5], the “Toxicity determination Bombyx mori L. Mortality (%)” value in data set [1] is 2%. In addition, the mortality at 100 ppm in data set [2] (setting [7]) came out at 34%; in data set [2] (setting [8]), 100%. The “Toxicity determination Apis cernan Mortality (%)” value in data set [3] is recorded as 9%. For the same compound, the mortality at 500 ppm in data set [4], in data set [5] and in data set [6] was 100% throughout.
Consider `C[S+]([O-])c1c(C#N)nn2c1NC(CO)(CC#N)c1cc(C(F)(F)F)cc(Cl)c1-2` (centres unmarked) [Compound C26], for which the “Toxicity determination Bombyx mori L. Mortality (%)” value in data set [1] stood at 4%. Moreover, the mortality at 100 ppm in data set [2] (setting [7]) was 20%; in data set [2] (setting [8]), 80%. Besides, the “Toxicity determination Apis cernan Mortality (%)” value in data set [3] worked out at 4%. Further, the mortality at 500 ppm in data set [4] came out at 100%; in data set [5] it was 89%; in data set [6], 90%.
As to `N#Cc1cn2c(c1C#N)NC(C#N)(C#N)c1ccc(N)cc1-2` [Compound B7], the “Toxicity determination Bombyx mori L. Mortality (%)” value in data set [1] was 6%. Besides, the mortality at 100 ppm in data set [2] (setting [7]) was determined as 38%; in data set [2] (setting [8]), 100%. Besides, the “Toxicity determination Apis cernan Mortality (%)” value in data set [3] amounted to 6%. Further, the mortality at 500 ppm in data set [4], in data set [5] and in data set [6] was 100% each time.
Take `COC(=O)CC1(C(=O)OC)c2cc(C(F)(F)F)cc(Cl)c2-n2nc(C#N)c([S+]([O-])C(F)(F)F)c2N1C(C)=O` (centres unmarked) [Compound C40]: the “Toxicity determination Bombyx mori L. Mortality (%)” value in data set [1] is given as 4%. For the same compound, the values for the mortality at 100 ppm in data set [2] (setting [7]) and in data set [2] (setting [8]) were 28% and 90%, respectively. In data set [3], the “Toxicity determination Apis cernan Mortality (%)” value is listed as 4%. Moreover, the mortality at 500 ppm turned out to be 100% in data set [4], 100% in data set [5] and 95% in data set [6].
Consider `COC(=O)/C=C/C1(CC#N)Nc2c([S+]([O-])C(F)(F)F)c(C#N)nn2-c2c(Cl)cc(C(F)(F)F)cc21` (centres unmarked) [Compound C58], for which the “Toxicity determination Bombyx mori L. Mortality (%)” value in data set [1] worked out at 4%. Further, the mortality at 100 ppm in data set [2] (setting [7]) was 29%; in data set [2] (setting [8]), 98%. In data set [3], the “Toxicity determination Apis cernan Mortality (%)” value worked out at 4%. Also, the mortality at 500 ppm in data set [4], in data set [5] and in data set [6] was 100% in each case.
For `CCOC(=O)c1c(SC)nn2c1NC(C)(C)c1nc(F)ncc1-2` [Compound A44], the “Toxicity determination Bombyx mori L. Mortality (%)” value in data set [1] is recorded as 8%. Moreover, the mortality at 100 ppm in data set [2] (setting [7]) turned out to be 26%; in data set [2] (setting [8]), 93%. In addition, the “Toxicity determination Apis cernan Mortality (%)” value in data set [3] turned out to be 8%. Also, the figures for the mortality at 500 ppm in data set [4], in data set [5] and in data set [6] were 100%, 100% and 90%, respectively.
As to `N#Cc1cnn2c1NC(N)(CN)c1ccc(Cl)cc1-2` (centres unmarked) [Compound A23], in data set [1], the “Toxicity determination Bombyx mori L. Mortality (%)” value was found to be 0%. Moreover, the figures for the mortality at 100 ppm in data set [2] (setting [7]) and in data set [2] (setting [8]) were 34% and 100%, respectively. The “Toxicity determination Apis cernan Mortality (%)” value in data set [3] is given as 5%. In addition, the mortality at 500 ppm in data set [4], in data set [5] and in data set [6] was 100% throughout.
For the compound `C=CC1(C(F)(F)F)Nc2c([S+]([O-])C(F)(F)F)c(C#N)nn2-c2c(Cl)cc(C(F)(F)F)cc21` (centres unmarked) [Compound C15], in data set [1], the “Toxicity determination Bombyx mori L. Mortality (%)” value was found to be 8%. Also, the mortality at 100 ppm in data set [2] (setting [7]) came to 29%; in data set [2] (setting [8]), 90%. Besides, the “Toxicity determination Apis cernan Mortality (%)” value in data set [3] was determined as 7%. In addition, the mortality at 500 ppm in data set [4] turned out to be 100%; in data set [5] it was 89%; in data set [6], 100%.
Take `C=CC1(C(F)(F)F)Nc2cc(C#N)nn2-c2c(Cl)cc(C(F)(F)F)cc21` (centres unmarked) [Compound C3]: the “Toxicity determination Bombyx mori L. Mortality (%)” value in data set [1] was determined as 12%. Further, the mortality at 100 ppm in data set [2] (setting [7]) is 24%; in data set [2] (setting [8]) it was 100%. Also, the “Toxicity determination Apis cernan Mortality (%)” value in data set [3] came to 10%. Besides, the mortality at 500 ppm in data set [4], in data set [5] and in data set [6] was 100% in each case.
On to `Nc1ccc2c(c1)-n1nc(C(F)(F)F)c(-c3ccc(F)cc3)c1NC2(C(F)(F)F)C(F)(F)F` [Compound A12], for which the “Toxicity determination Bombyx mori L. Mortality (%)” value in data set [1] was 13%. The mortality at 100 ppm is 44% in data set [2] (setting [7]) and 100% in data set [2] (setting [8]). Moreover, the “Toxicity determination Apis cernan Mortality (%)” value in data set [3] amounted to 12%. The mortality at 500 ppm in data set [4], in data set [5] and in data set [6] was 100% throughout.
With `N#Cc1nn2c(c1[S+]([O-])C(F)(F)F)NC(CC(F)(F)F)(C(O)CO)c1cc(C(F)(F)F)cc(Cl)c1-2` (centres unmarked) [Compound C56], the “Toxicity determination Bombyx mori L. Mortality (%)” value in data set [1] is reported as 6%. Also, the mortality at 100 ppm in data set [2] (setting [7]) worked out at 27%; in data set [2] (setting [8]), 80%. Moreover, in data set [3], the “Toxicity determination Apis cernan Mortality (%)” value is 8%. Besides, the mortality at 500 ppm was 91% in data set [4], 82% in data set [5] and 87% in data set [6].
With `CSc1nn2c(c1S(=O)(=O)c1ccccc1)NC(C)(C)c1nc(F)ncc1-2` [Compound A45], the “Toxicity determination Bombyx mori L. Mortality (%)” value in data set [1] was 10%. Further, the mortality at 100 ppm in data set [2] (setting [7]) came out at 24%; in data set [2] (setting [8]), 100%. Moreover, the “Toxicity determination Apis cernan Mortality (%)” value in data set [3] worked out at 11%. The mortality at 500 ppm in data set [4], in data set [5] and in data set [6] was 100% each time.
Regarding `COc1ccc(-c2cn3c(c2C#N)N(C)C(C#N)(C#N)c2ccc([N+](=O)[O-])cc2-3)cc1` [Compound B2], the “Toxicity determination Bombyx mori L. Mortality (%)” value in data set [1] turned out to be 3%. In addition, the mortality at 100 ppm was found to be 26% in data set [2] (setting [7]) and 93% in data set [2] (setting [8]). In addition, the “Toxicity determination Apis cernan Mortality (%)” value in data set [3] stood at 4%. Further, the mortality at 500 ppm in data set [4] is 93%; in data set [5], 100%; in data set [6], 90%.
As to `CC(=O)N1c2c(Br)c(C#N)nn2-c2ccccc2C1(C)C` [Compound A4], the “Toxicity determination Bombyx mori L. Mortality (%)” value in data set [1] was determined as 10%. The values for the mortality at 100 ppm in data set [2] (setting [7]) and in data set [2] (setting [8]) were 20% and 87%, respectively. Moreover, the “Toxicity determination Apis cernan Mortality (%)” value in data set [3] is reported as 8%. The mortality at 500 ppm in data set [4] is 100%; in data set [5], 86%; in data set [6], 100%.

By mortality is commonly meant the percentage killed.
